Data: patent US9880171B2, “iASPP phosphorylation and metastatic potential” (LUDWIG INSTITUTE FOR CANCER RESEARCH LTD., priority 2012, dated 2018)

What was measured:
B16 melanoma cells = test: apoptosis by Sub-G1 FACS analysis, Example 10, B16 cells; assay type: cell-based, mouse
Description: FIG. 20. Restoring p53 by inhibiting mdm2 and iASPP suppresses melanoma growth in vitro and in vivo. FIG. 20A. H1299 cells were treated with DMSO or 10 μM nocodazole in the presence or absence of 2 or 10 μM of mitosis-related kinase inhibitors as indicated. […] FIG. 20B. Left panel: representative p53 level after Nutlin3 treatment for 24 hours in a variety of cells. Right bar graphs show the sub-G1 proportion of WM278 after treatment as that described in FIG. 19B (in upper panel, 10 μM and 20 μM Nutlin3 were used in parallel for comparison). From left to right of the upper right bar graph of FIG. 20B, the bars correspond to DMSO, Nut and JNJ+Nut, respectively. From left to right of the bottom bar graph of FIG. 20B, the bars correspond to DMSO, JNJ, Nut and JNJ+Nut, respectively. FIG. 20C. Me300, SK-MEL37, and B16 cells were treated as above (For B16 panel, 10 μM Nutlin3 was used) and sub-G1 proportion was analyzed. In (B) and (C), the bar graphs (mean±SD) were derived from three independent experiments. *p<0.05. FIG. 20D. Left panel: untreated B16 cells were subcutaneously injected into mice at day 1. […] Compound administration and tumor size measurement were repeated every two days from day 7 onwards. Bar graphs are shown as mean±SD (*p<0.05, n=6). FIG. 20E. […]
FIG. 22. […] Me300, SK-MEL37, and B16 cells were treated as described herein and sub-G1 cells were analyzed as described herein.

iASPP(-/-)MEFs = test: apoptosis markers (c-PARP, c-Caspase 3) in Ras and E1A transformed iASPP(-/-) MEFs; assay type: cell-based, mouse; conditions: vector transfected iASPP(-/-)MEFs, 24 hours
Description: FIG. 9. […] A. iASPP S84D/S113D binds p53 better than WT iASPP in vitro. in vitro translated iASPP-V5 (WT) or its mutant iASPP(S84D/S113D) (S84D/S113D) (Input) were incubated with nickel beads that were pre-bound with either p53(2-193)-His (p53) or BSA (BSA) to carry out an immunoprecipitation assay (IP). The amount of iASPP that was co-immunoprecipitated with p53 was detected by an anti-V5 antibody (iASPP V5 panel) whereas the amount of p53 immunoprecipitated was detected by an anti-His antibody (p53(2-193)-His panel). B iASPP S84D/S113D binds p53 better than WT iASPP in transfected cells. iASPP-V5 (WT) or its mutant iASPP(S84D/S113D) (S84D/S113D) and p53 were co-transfected in H1299 cells (Input). […] The amount of p53 pulled down is shown in (p53 panel) whereas p53 bound iASPP was determined by anti-V5 antibody (iASPP V5 panel). […] The expression levels of known apoptosis markers were detected in immunoblotting using D214 or D175 to detect cleaved PARP (c-PARP) or caspase 3 (c-caspase 3) respectively. […] Cells were dissolved in urea buffer and apoptosis markers (cleaved PARP, caspase-3) were determined by WB.
The anti-apoptotic function of iASPP and its mutant iASPP(S84D/S113D) was tested in Ras and E1A transformed iASPP(−/−)MEFs (referred to as iASPP(−/−)MEFs). […] Apoptosis was measured by the presence of cleaved PARP (c-PARP) or active caspase 3 (c-Caspase 3). […]

Compound | increase in Nutlin3-induced apoptosis (B16 melanoma cells) | apoptosis (increase in c-PARP and c-Caspase 3) (iASPP(-/-)MEFs)
Nc1nc(Nc2ccc(S(N)(=O)=O)cc2)nn1C(=O)c1c(F)cccc1F [JNJ-7706621] | 3-4 fold | –
COc1ccc(C2=N[C@@H](c3ccc(Cl)cc3)[C@@H](c3ccc(Cl)cc3)N2C(=O)N2CCNC(=O)C2)c(OC(C)C)c1 [Nutlin3] | – | apoptosis was detected
